{"source": "patent US20130123325A1", "about": "“USE OF BOCEPREVIR AND RELATED COMPOUNDS IN ATHEROSCLEROSIS, HEART FAILURE, RENAL DISEASES, LIVER DISEASES OR INFLAMMATORY DISEASES” (priority 2011, published 2013)", "biological_target": "T1, Recombinant human cathepsin A (Homo sapiens, UniProt P10619)", "T1 construct": "Recombinant human cathepsin A (residues 29-480, with a C-terminal 10-His tag); 10-His (C); purchased R & D Systems 1049-SE", "T1 sequence (P10619 29-326 limits assumed)": "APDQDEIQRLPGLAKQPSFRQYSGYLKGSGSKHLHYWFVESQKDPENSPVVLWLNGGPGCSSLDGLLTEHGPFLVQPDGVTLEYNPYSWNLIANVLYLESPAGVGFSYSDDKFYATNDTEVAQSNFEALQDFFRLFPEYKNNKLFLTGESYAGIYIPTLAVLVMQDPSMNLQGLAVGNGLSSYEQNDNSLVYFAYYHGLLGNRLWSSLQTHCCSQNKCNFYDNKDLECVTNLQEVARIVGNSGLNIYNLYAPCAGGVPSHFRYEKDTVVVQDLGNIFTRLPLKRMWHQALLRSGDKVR", "T1 sequence (P10619 327-480 limits assumed)": "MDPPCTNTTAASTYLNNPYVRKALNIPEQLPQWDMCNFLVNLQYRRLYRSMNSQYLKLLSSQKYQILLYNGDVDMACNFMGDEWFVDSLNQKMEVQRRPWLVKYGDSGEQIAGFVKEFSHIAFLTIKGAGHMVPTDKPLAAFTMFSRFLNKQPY", "test": "Cathepsin A inhibitory activity", "format": "biochemical", "conditions": "Bodipy FL-labeled bradykinin substrate 2 μM, pH 5.5, microfluidic capillary electrophoresis", "procedure": "Recombinant human cathepsin A (residues 29-480, with a C-terminal 10-His tag; R & D Systems, # 1049-SE) was proteolytically activated with recombinant human cathepsin L (R & D Systems, # 952-CY). Briefly, cathepsin A was incubated at 10 μg/ml with cathepsin L at 1 μg/ml in activation buffer (25 mM 2-(morpholin-4-yl)-ethanesulfonic acid (MES), pH 6.0, containing 5 mM dithiothreitol (DTT)) for 15 min at 37° C. Cathepsin L activity was then stopped by the addition of the cysteine protease inhibitor E-64 (N-(trans-epoxysuccinyl)-L-leucine-4-guanidinobutylamide; Sigma-Aldrich, # E3132; dissolved in activation buffer/DMSO) to a final concentration of 10 μM.\nThe activated cathepsin A was diluted in assay buffer (25 mM MES, pH 5.5, containing 5 mM DTT) and mixed with the test compound (dissolved in assay buffer containing (v/v) 3% DMSO) or, in the control experiments, with the vehicle in a multiple assay plate. […]\nUncleaved substrate and product were then separated by a microfluidic capillary electrophoresis on a LabChip® 3000 Drug Discovery System (12-Sipper-Chip; Caliper Life Sciences) and quantified by determination of the respective peak areas. Substrate turnover was calculated by dividing product peak area by the sum of substrate and product peak areas, and the enzyme activity and the inhibitory effect of the test compound thus quantified. […]"}
{"smiles": "CC(C)(C)NC(=O)N[C@H](C(=O)N1C[C@H]2[C@@H]([C@H]1C(=O)NC(CC1CCC1)C(=O)C(N)=O)C2(C)C)C(C)(C)C", "note": "(stereo partly drawn) [Boceprevir, (1R,2S,5S)—N-[(2E)-4-amino-1-cyclobutyl-3,4-dioxobutan-2-yl]-3-{(2S)-2-[(tert-butylcarbamoyl)amino]-3,3-dimethylbutanoyl}-6,6-dimethyl-3-azabicyclo[3.1.0]hexane-2-carboxamide]", "values": [{"measurement": "IC50", "result": 1, "unit": "µM"}]}
